Assay results from patent publication US20180125993A1 (BEIJING COTIMES BIOTECH COMPANY LIMITED, priority 2014, published 2018).
Marks after values point to notes of the source that are not given here.

Experiments:
7901 = test: In vitro cytotoxic sensitivity of CTB006; format: cell-based, human; conditions: 7901, Stomach cancer
WiDr = test: Human colon cancer Widr subcutaneous model (Day 27 after treatment); format: in vivo, nude mice
Protocol: Tumor cells (i.e., MIA-PaCa-2, WiDr, H2122, colo205) were inoculated in nude mice's flank at 5×10^6 cells per mouse. The mice were grouped when the average volume of tumors reached about 100˜200 mm^3. “QW”=weekly dose. “Q3d”=dosed every third day. “BiW”=biweekly.
The bodyweight and major/minor axis of the mice were measured twice a week, and the tumor volumes were calculated using the formula: Tumor volume=1/2×major axis[…]. […] “T” represents average tumor volume of the experimental group (cm^3), and “C” represents average tumor volume of the control group (cm^3). The animals were monitored at all times. The bodyweight and major/minor axis or mice were measured twice a week.
Tumor volumes were represented with average±standard error. […] P<0.05 represents significant difference.

H2122 = test: Human lung cancer H2122 subcutaneous model (Day 38 after treatment); conditions: for Tumor regression: treatment groups
Protocol: The bodyweight and major/minor axis of the mice were measured twice a week, and the tumor volumes were calculated using the formula: Tumor volume=1/2×major axis×minor axis. […] “T” represents average tumor volume of the experimental group (cm^3), and “C” represents average tumor volume of the control group (cm^3). The animals were monitored at all times. The bodyweight and major/minor axis or mice were measured twice a week. When the experiments were concluded, mice were sacrificed and tumors were extracted and weighted.
Tumor volumes were represented with average±standard error. Data analysis was done using Spss16.0, One-Way ANOVA, LSD (homogeneity of variance) or Dunnett T3 (non-homogeneity of variance). […] P<0.05 represents significant difference.

OVCA3 = test: In vitro cytotoxic sensitivity of CTB006; format: cell-based, human; conditions: OVCA3, Ovarian cancer
Huh-7 = test: In vitro cytotoxic sensitivity of CTB006; format: cell-based, human; conditions: Huh-7, Liver cancer
MDA-MB-468 = test: In vitro cytotoxic sensitivity of CTB006; format: cell-based, human; conditions: MDA-MB-468, Breast cancer
Raji = test: In vitro cytotoxic sensitivity of CTB006; format: cell-based, human; conditions: B cell lymphoma
NUGC3 = test: In vitro cytotoxic sensitivity of CTB006; format: cell-based, human; conditions: NUGC3, Stomach cancer
SKOV3 = test: In vitro cytotoxic sensitivity of CTB006; format: cell-based, human; conditions: SKOV3, Ovarian cancer
[1] = tested on: WI-38, HFL-1, HUV-EC-C, human hepatic differentiated cells; test: Cytotoxicity of HuCTB006 on human normal tissue cell lines; format: cell-based; conditions: 24 hours after the treatments
Source text: Several human normal tissue cell lines, including human lung epithelial fibroblasts WI-38, human embryonic lung fibroblasts HFL-1, human umbilical vein epithelial cells HUV-EC-C, and human hepatic differentiated cells, which were derived from liver genitor cells (obtained from Peking University Third Hospital). […] The culture medium for WI-38 was MEM, and the culture medium for HFL-1 and HUV-EC-C was F-12K.

[2] = HuCTB006 0.07 mg/kg i.v. QW × 4W
[3] = HuCTB006 0.07 mg/kg i.v. QW × 4W, 0.07 mg/kg
[4] = HuCTB006 0.07 mg/kg i.v. QW × 4W, listed as HUCTB006, 0.07 mg/kg
[5] = HuCTB006 0.22 mg/kg i.v. QW × 4W
[6] = HuCTB006 0.22 mg/kg i.v. QW × 4W, 0.22 mg/kg
[7] = HuCTB006 0.22 mg/kg i.v. QW × 4W, listed as HUCTB006, 0.22 mg/kg
[8] = HuCTB006 0.67 mg/kg i.v. QW × 4W
[9] = HuCTB006 0.67 mg/kg i.v. QW × 4W, 0.67 mg/kg
[10] = HuCTB006 0.67 mg/kg i.v. QW × 4W, listed as HUCTB006, 0.67 mg/kg
[11] = HuCTB006 2 mg/kg i.v. QW × 4W, 2 mg/kg
[12] = HuCTB006 2 mg/kg i.v. QW × 4W, listed as HUCTB006, 2 mg/kg
[13] = repeated experiment, HuCTB006 0.07 mg/kg
[14] = repeated experiment, HuCTB006 0.22 mg/kg
[15] = repeated experiment, HuCTB006 0.67 mg/kg
[16] = repeated experiment, HuCTB006 2 mg/kg
[17] = HuCTB006 0.2 mg/kg i.v. QW × 6W
[18] = HuCTB006 0.2 mg/kg i.v. QW × 6W, 0.2 mg/kg
[19] = HuCTB006 0.2 mg/kg i.v. QW × 6W, listed as HUCTB006, 0.2 mg/kg
[20] = HuCTB006 0.6 mg/kg i.v. QW × 6W
[21] = HuCTB006 0.6 mg/kg i.v. QW × 6W, 0.6 mg/kg
[22] = HuCTB006 0.6 mg/kg i.v. QW × 6W, listed as HUCTB006, 0.6 mg/kg
[23] = HuCTB006 1.8 mg/kg i.v. QW × 6W
[24] = HuCTB006 1.8 mg/kg i.v. QW × 6W, 1.8 mg/kg
[25] = HuCTB006 1.8 mg/kg i.v. QW × 6W, listed as HUCTB006, 1.8 mg/kg
[26] = HuCTB006 5.4 mg/kg i.v. QW × 6W
[27] = HuCTB006 5.4 mg/kg i.v. QW × 6W, 5.4 mg/kg
[28] = HuCTB006 5.4 mg/kg i.v. QW × 6W, listed as HUCTB006, 5.4 mg/kg
[29] = repeated experiment, HuCTB006 0.2 mg/kg
[30] = repeated experiment, HuCTB006 0.6 mg/kg
[31] = repeated experiment, HuCTB006 1.8 mg/kg
[32] = repeated experiment, HuCTB006 5.4 mg/kg

HuCTB006: Monospecific humanized chimeric monoclonal antibody directed to TRAIL-R2 receptor; heavy chain SEQ ID NO: 14, light chain SEQ ID NO: 12
In vitro cytotoxic sensitivity of CTB006 7901: Non-responder | T/C % (Calculated using tumor volume) (WiDr; [2]): 90.16% | Time of tumor volume changed significantly (WiDr; [2]): 7 | Tumor Volume Mean ± SEM (WiDr; [2]): 1.76 ± 0.18 cm^3 | Tumor weight Mean ± SEM (WiDr; [2]): 1.29 ± 0.18 g | TGI (Calculated using tumor volume) (WiDr; [3]): 6.61% | TGI (Calculated using tumor weight) (WiDr; [3]): 11.99% | TGI (Calculated using tumor volume) (WiDr; [4]): 6.61% ^1 | TGI (Calculated using tumor weight) (WiDr; [4]): 11.99% | T/C % (Calculated using tumor volume) (WiDr; [5]): 81.49% | Time of tumor volume changed significantly (WiDr; [5]): 7 | Tumor Volume Mean ± SEM (WiDr; [5]): 1.54 ± 0.18 cm^3 | Tumor weight Mean ± SEM (WiDr; [5]): 1.16 ± 0.13 g | TGI (Calculated using tumor volume) (WiDr; [6]): 18.71% | TGI (Calculated using tumor weight) (WiDr; [6]): 21.13% | TGI (Calculated using tumor volume) (WiDr; [7]): 18.71% ^ac | TGI (Calculated using tumor weight) (WiDr; [7]): 21.13% | T/C % (Calculated using tumor volume) (WiDr; [8]): 49.54% | Time of tumor volume changed significantly (WiDr; [8]): 11 | Tumor Volume Mean ± SEM (WiDr; [8]): 0.96 ± 0.10 cm^3 | Tumor weight Mean ± SEM (WiDr; [8]): 0.68 ± 0.08 g | TGI (Calculated using tumor volume) (WiDr; [9]): 49.42% | TGI (Calculated using tumor weight) (WiDr; [9]): 53.48% | TGI (Calculated using tumor volume) (WiDr; [10]): 49.42% ^abc | TGI (Calculated using tumor weight) (WiDr; [10]): 53.48% ^a | T/C % (Calculated using tumor volume) (WiDr; HuCTB006 2 mg/kg i.v. QW × 4W): 42.17% | Time of tumor volume changed significantly (WiDr; HuCTB006 2 mg/kg i.v. QW × 4W): 14 | Tumor Volume Mean ± SEM (WiDr; HuCTB006 2 mg/kg i.v. QW × 4W): 0.80 ± 0.11 cm^3 | Tumor weight Mean ± SEM (WiDr; HuCTB006 2 mg/kg i.v. QW × 4W): 0.53 ± 0.08 g | TGI (Calculated using tumor volume) (WiDr; [11]): 57.34% | TGI (Calculated using tumor weight) (WiDr; [11]): 63.81% | TGI (Calculated using tumor volume) (WiDr; [12]): 57.34% ^abc | TGI (Calculated using tumor weight) (WiDr; [12]): 63.81% ^a | TGI (Calculated using tumor volume) (WiDr; [13]): 36.21% | TGI (Calculated using tumor weight) (WiDr; [13]): 39.94% | TGI (Calculated using tumor volume) (WiDr; [14]): 54.98% | TGI (Calculated using tumor weight) (WiDr; [14]): 57.56% | TGI (Calculated using tumor volume) (WiDr; [15]): 53.73% | TGI (Calculated using tumor weight) (WiDr; [15]): 49.85% | TGI (Calculated using tumor volume) (WiDr; [16]): 53.77% | TGI (Calculated using tumor weight) (WiDr; [16]): 53.75% | T/C % (Calculated using tumor volumes) (H2122; [17]): 92.13% | Time of tumor volume changed significantly (H2122; [17]): 8 | Tumor Volume Mean ± SEM (H2122; [17]): 1.85 ± 0.15 cm^3 | Tumor weight Mean ± SEM (H2122; [17]): 1.54 ± 0.09 g | TGI (Calculated using tumor volumes) (H2122; [18]): 11.56% | TGI (Calculated using tumor weight) (H2122; [18]): 6.45% | TGI (Calculated using tumor volumes) (H2122; [19]): 11.56% | TGI (Calculated using tumor weight) (H2122; [19]): 6.45%^5 | T/C % (Calculated using tumor volumes) (H2122; [20]): 50.75% | Tumor Volume Mean ± SEM (H2122; [20]): 1.02 ± 0.31 cm^3 | Tumor weight Mean ± SEM (H2122; [20]): 0.89 ± 0.29 g | TGI (Calculated using tumor volumes) (H2122; [21]): 51.06% | TGI (Calculated using tumor weight) (H2122; [21]): 45.66% | TGI (Calculated using tumor volumes) (H2122; [22]): 51.06%^3 | TGI (Calculated using tumor weight) (H2122; [22]): 45.66%^4 | T/C % (Calculated using tumor volumes) (H2122; [23]): 6.46% | Tumor Volume Mean ± SEM (H2122; [23]): 0.16 ± 0.16 cm^3 | Tumor weight Mean ± SEM (H2122; [23]): 0.12 ± 0.12 g | TGI (Calculated using tumor volumes) (H2122; [24]): 92.08% | TGI (Calculated using tumor weight) (H2122; [24]): 92.48% | TGI (Calculated using tumor volumes) (H2122; [25]): 92.08%**^2 | TGI (Calculated using tumor weight) (H2122; [25]): 92.48%* | T/C % (Calculated using tumor volumes) (H2122; [26]): 5.54% | Tumor Volume Mean ± SEM (H2122; [26]): 0.18 ± 0.18 cm^3 | Tumor weight Mean ± SEM (H2122; [26]): 0.19 ± 0.18 g | TGI (Calculated using tumor volumes) (H2122; [27]): 91.23% | TGI (Calculated using tumor weight) (H2122; [27]): 8.62% | TGI (Calculated using tumor volumes) (H2122; [28]): 91.23%** | TGI (Calculated using tumor weight) (H2122; [28]): 88.62%*^1 | Bodyweights (H2122; Taxol group, HuCTB006 0.2 mg/kg group): decreased, but were maintained at an acceptable level | Tumor regression (H2122; first experiment): some animals of HuCTB006 treatment groups showed tumor regression | Tumor regression (H2122; repeated experiment): some animals of CTB006 treatment groups showed tumor regression | TGI (Calculated using tumor volume) (H2122; [29]): 35.26% | TGI (Calculated using tumor weight) (H2122; [29]): 32.46% | TGI (Calculated using tumor volume) (H2122; [30]): 67.66% | TGI (Calculated using tumor weight) (H2122; [30]): 65.94% | TGI (Calculated using tumor volume) (H2122; [31]): 60.12% | TGI (Calculated using tumor weight) (H2122; [31]): 64.21% | TGI (Calculated using tumor volume) (H2122; [32]): 91.69% | TGI (Calculated using tumor weight) (H2122; [32]): 92.25% | In vitro cytotoxic sensitivity of CTB006 (OVCA3): Non-responder | In vitro cytotoxic sensitivity of CTB006 (Huh-7): Non-responder | In vitro cytotoxic sensitivity of CTB006 (MDA-MB-468): Non-responder | In vitro cytotoxic sensitivity of CTB006 (Raji): Non-responder | In vitro cytotoxic sensitivity of CTB006 (NUGC3): Partial-responder | In vitro cytotoxic sensitivity of CTB006 (SKOV3): Non-responder | cytotoxicity on human normal tissue cells [1]: no cytotoxicity
